Reference: publication PMC9848286, “Design, synthesis, and biological investigation of oxadiazolyl, thiadiazolyl, and pyrimidinyl linked antipyrine derivatives as potential non-acidic anti-inflammatory agents” (Journal of Enzyme Inhibition and Medicinal Chemistry, 2023)

Columns and labels:
[1] = test system: COX-2; experiment: Immunohistochemistry of COX-2 expression in paw tissue; format: in vivo; details: rat paw 5 h after carrageenan; CLX 30, 4b 36, 4c 40 mg/kg i.p.
Protocol: After overnight fasting, five groups of rats were randomly divided (n = 5). Group I (Control): injected only with the DMSO solution (1.2 ml/kg, i.p, 10% v/v of DMSO in sterile 0.9% saline solution). Group II (Carrageenan): injected with carrageenan [0.1 ml of a freshly prepared solution of carrageenan (1% w/v in sterile 0.9% saline solution) into the sub-plantar region of the right hind paw] and the DSMO solution. […] One hour after treatments, edema caused by carrageenan injection as described above. A digital vernier caliper (Elora, Germany) was used to measure the thickness of the paw right prior to injection of carrageenan and thereafter at 1, 2, 3, 4, and 5 h.
After five hours from carrageenan injection, the rats were euthanized using surgical dislocation with removal of the inflamed paws. Tissues of rat hind-paw’s pad were collected, and 5-mm pieces were homogenised in iced phosphate buffer saline (pH 7.4) on ice. […]
The other set of sections were immunostained to examine expression levels of COX-2 and nuclear factor kappa B (NF-κB p65) using monoclonal antibodies (Thermo Fisher Scientific, MA, United States) and as per the guidelines provided by the manufacturer. Immunostained sections were scored as follows: 0,1, 2 and 3 if there is no, weak, moderate, and strong staining effect, respectively.[49]

[2] = test system: carrageenan-induced paw edoema; experiment: Carrageenan-induced rat paw edoema, paw swelling; format: in vivo; details: rats, i.p. 1 h before carrageenan; CLX 30 mg/kg, 4b 36 mg/kg, 4c 40 mg/kg; 1-5 h
Description: The anti-inflammatory activity of the two selected compounds from the above screening, 4b and 4c was scrutinized in vivo using a paw edema model produced by carrageenan. Male Sprague Dawley rats (180–200 g) were obtained from Vacsera (Giza, Egypt) and maintained at rtunfettered access to food and water in a light-controlled space with a twelve-hour light/dark cycle. The research ethics committee at Mansoura University, Egypt examined and authorized the experiments (code number: 2022–78).
(§1) After overnight fasting, five groups of rats were randomly divided (n = 5). Group I (Control): injected only with the DMSO solution (1.2 ml/kg, i.p, 10% v/v of DMSO in sterile 0.9% saline solution). Group II (Carrageenan): injected with carrageenan [0.1 ml of a freshly prepared solution of carrageenan (1% w/v in sterile 0.9% saline solution) into the sub-plantar region of the right hind paw] and the DSMO solution. Group III (CLX): injected the standard drug CLX (30 mg/kg, i.p, 2.5% w/v in the DMSO solution). Group IV (4 b) injected the test drug 4 b (36 mg/kg, i.p, 2% w/v in the vehicle). Group V (4c): injected the test drug 4c (40 mg/kg, i.p, 2% w/v in the DMSO solution). The selected doses of 4 b and 4c were equimolar to 30 mg/kg CLX. One hour after treatments, edema caused by carrageenan injection as described above. A digital vernier caliper (Elora, Germany) was used to measure the thickness of the paw right prior to injection of carrageenan and thereafter at 1, 2, 3, 4, and 5 h.
The paw edoema (E%) and edoema inhibition rate (I%) were calculated as follow: E%=B−A/A×100,
A: paw thickness (mm) just before carrageenan injection and B: paw thickness (mm) at different time intervals after carrageenan injection: I%=Ec−Et/Ec×100,
Ec: mean paw edoema of the carrageenan group and Et is the paw odema of the tested groups.

[3] = test system: PGE2; experiment: PGE2 level in paw tissue homogenate (ELISA); format: in vivo, rat; details: for PGE2 paw tissue level in comparison to the CLX group: P < 0.001; for PGE2 paw tissue level compared to the carrageenan group: rat paw 5 h after carrageenan, CLX 30, 4b 36, 4c 40 mg/kg i.p., P < 0.001, 0.05 and 0.001 respectively
Protocol: as §1
(§2) After five hours from carrageenan injection, the rats were euthanized using […] with removal of the inflamed paws. Tissues of rat hind-paw’s pad were collected, and 5-mm pieces were homogenised in iced phosphate buffer saline (pH 7.4) on ice. Next, the prepared homogenate was centrifuged (10,000 g, 15 min, 4 °C) and the obtained supernatant was collected for additional analysis. The remaining tissue was fixed in formalin (10% v/v) for 24 h after which it was inserted in paraffin wax.
(§3) Levels of prostaglandin E2 (PGE2) and tumour necrosis factor-alpha (TNF-α) were measured in paw tissue homogenate using ELISA kits (Cusabio Technology LLC, TX, United States) and as per the guidelines provided by the manufacturer.

[4] = test system: carrageenan-injected rat paw tissue; experiment: Histopathological (H&E) inflammation scoring of carrageenan-inflamed paw tissue; format: in vivo; details: rat paw 5 h after carrageenan; CLX 30, 4b 36, 4c 40 mg/kg i.p.; significant (P < 0.05) only with CLX
Protocol: as §1, §2
(§4) Paraffinized tissue sections were dewaxed in xylene and mounted on slides then […] with hematoxylin-eosin (H&E) for histopathological evaluation of inflammation. Inflammation score from 0 to 5 was given as follows: 0,1,2,3,4, and 5 if there is no, mild, mild/moderate, moderate, moderate/severe, and severe inflammation, respectively.[48] […] Immunostained sections were scored as follows: 0,1, 2 and 3 if there is no, weak, moderate, and strong staining effect, respectively.[49]

[5] = target: T1, COX-1 (Ovis aries, UniProt P05979); experiment: In vitro COX-1 inhibition, colorimetric screening assay kit; details: for HillSlope (best-fit value), COX-1 inhibition / LogIC50 (best-fit value), COX-1 inhibition: supplementary dose-response curve
T1 sequence (P05979 25-600): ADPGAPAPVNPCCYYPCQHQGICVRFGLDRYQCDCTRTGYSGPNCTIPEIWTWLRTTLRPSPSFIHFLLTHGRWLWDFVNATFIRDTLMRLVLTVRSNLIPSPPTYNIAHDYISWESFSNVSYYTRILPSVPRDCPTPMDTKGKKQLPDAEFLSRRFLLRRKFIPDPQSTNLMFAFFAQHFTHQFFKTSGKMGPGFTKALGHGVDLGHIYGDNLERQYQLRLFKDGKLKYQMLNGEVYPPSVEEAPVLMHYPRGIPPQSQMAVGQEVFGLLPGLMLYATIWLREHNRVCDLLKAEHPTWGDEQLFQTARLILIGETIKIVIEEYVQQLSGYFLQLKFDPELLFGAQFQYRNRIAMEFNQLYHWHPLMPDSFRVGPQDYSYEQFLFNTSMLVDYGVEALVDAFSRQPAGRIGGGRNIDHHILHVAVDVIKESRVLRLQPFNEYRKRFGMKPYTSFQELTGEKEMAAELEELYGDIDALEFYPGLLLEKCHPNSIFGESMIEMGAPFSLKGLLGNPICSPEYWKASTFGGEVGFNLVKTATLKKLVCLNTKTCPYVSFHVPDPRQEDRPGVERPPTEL
Protocol: (§5) This assay examined the inhibitory potency of the target structures towardboth COX isoforms via colorimetric screening assay kit (Cayman Chemical, MI, United States) based on the directions provided by the manufacturer. ELISA reader Thermo Scientific Multiskan® EX (Thermo scientific, United States) was used. […] Serial dilutions of CLX, as a reference standard, and tested compounds at concentrations of 1000, 300, 100, 30, 10, 3, 1, and 0.30 nM were used in the assay. IC50 of the tested compounds were determined using three different experiments. The selectivity (SI) of each ompound was measured using the COX-2/COX-1 ratio, which compares the IC50 of COX-2 and COX-1.

[6] = test system: NF-κB; experiment: Immunohistochemistry of NF-κB p65 expression in paw tissue; format: in vivo; details: rat paw 5 h after carrageenan; CLX 30, 4b 36, 4c 40 mg/kg i.p.; significant (P < 0.05) only with CLX
Protocol: as §1, §2, §4

[7] = test system: nitric oxide (NO); experiment: NO content in paw tissue homogenate (colorimetric kit); format: in vivo, rat; details: for NO paw tissue content compared to CLX: P < 0.01
Protocol: as §1, §2
Contents of malondialdehyde (MDA) as a lipid peroxidation product, and nitric oxide (NO) as anitrosative product, were measured in paw tissue homogenate using colorimetric commercial kits (Biodiagnostic, Giza, Egypt) and as per the guidelines provided by the manufacturer.

[8] = target: T2, COX-2 (Homo sapiens, UniProt P35354); experiment: In vitro COX-2 inhibition, colorimetric screening assay kit; details: for (SI) in vitro COX-2 selectivity index: COX-1 IC50/COX-2 IC50; for HillSlope (best-fit value), COX-2 inhibition / LogIC50 (best-fit value), COX-2 inhibition: supplementary dose-response curve
T2 sequence (P35354 18-604): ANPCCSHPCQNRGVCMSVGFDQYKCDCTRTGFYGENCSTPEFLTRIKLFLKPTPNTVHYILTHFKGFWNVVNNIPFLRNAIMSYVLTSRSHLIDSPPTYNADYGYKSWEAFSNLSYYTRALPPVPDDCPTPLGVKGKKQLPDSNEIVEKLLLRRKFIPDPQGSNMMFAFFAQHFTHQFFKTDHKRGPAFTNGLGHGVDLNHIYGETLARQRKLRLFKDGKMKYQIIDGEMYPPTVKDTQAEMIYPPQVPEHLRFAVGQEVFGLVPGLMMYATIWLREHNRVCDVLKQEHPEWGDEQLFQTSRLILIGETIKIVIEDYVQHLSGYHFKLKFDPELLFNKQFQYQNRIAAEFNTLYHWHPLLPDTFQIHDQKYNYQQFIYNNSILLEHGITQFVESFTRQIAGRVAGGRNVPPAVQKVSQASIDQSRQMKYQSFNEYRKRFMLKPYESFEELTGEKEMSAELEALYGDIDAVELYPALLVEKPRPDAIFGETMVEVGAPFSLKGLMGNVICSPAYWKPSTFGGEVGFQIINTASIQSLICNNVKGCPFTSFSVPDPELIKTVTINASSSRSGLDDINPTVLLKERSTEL
Protocol: as §5

[9] = test system: TNF-α; experiment: TNF-α level in paw tissue homogenate (ELISA); format: in vivo, rat; details: for TNF-α lowering effect compared with CLX: P < 0.01; for TNF-α paw tissue level compared to the carrageenan group: rat paw 5 h after carrageenan, CLX 30, 4b 36, 4c 40 mg/kg i.p., P < 0.001
Protocol: as §1, §2, §3

[10] = design: method as in PMID 29426771, PMID 11600237, PMID 33266208, PMID 19084415, PMID 35423143; details: Figure 1; cited from earlier work
[11] = test system: COX-2; details: printed in Figure 1, comparator of an unlabelled compound; cited from earlier work

SMILES: Cc1c(NC(=O)CSc2nnc(-c3ccc(Cl)cc3)o2)c(=O)n(-c2ccccc2)n1C [4b, 2-((5–(4-Chlorophenyl)-1,3,4-oxadiazol-2-yl)thio)-N-(1,5-dimethyl-3-oxo-2-phenyl-2,3-dihydro-1H-pyrazol-4-yl)acetamide]
- COX-2 positive expression score compared to the carrageenan group [1]: decreased
- percentage of paw swelling compared to the carrageenan group [2]: marked lower percentages of paw swelling
- PGE2 paw tissue level in comparison to the CLX group [3]: higher levels
- PGE2 paw tissue level compared to the carrageenan group [3]: reduced
- semi-quantitative inflammation score (H&E) compared to the carrageenan group [4]: decreased
- IC50 [5]: 238.5 ± 2.08 nM
- HillSlope (best-fit value), COX-1 inhibition [5]: -0.4124
- LogIC50 (best-fit value), COX-1 inhibition [5]: 2.378 Log (nM)
- NF-κB positive expression score compared to the carrageenan group [6]: decreased
- NO paw tissue content compared to CLX [7]: higher
- IC50 [8]: 53.8 ± 2.05 nM
- (SI) in vitro COX-2 selectivity index [8]: 4.44
- HillSlope (best-fit value), COX-2 inhibition [8]: -0.2859
- LogIC50 (best-fit value), COX-2 inhibition [8]: 1.730 Log (nM)
- melting point: 190 to 192 °C
- TNF-α lowering effect compared with CLX [9]: higher
- TNF-α paw tissue level compared to the carrageenan group [9]: decrease

SMILES: Cc1c(NC(=O)CSc2nnc(-c3ccc(Br)cc3)o2)c(=O)n(-c2ccccc2)n1C [4c, 2-((5–(4-Bromophenyl)-1,3,4-oxadiazol-2-yl)thio)-N-(1,5-dimethyl-3-oxo-2-phenyl-2,3-dihydro-1H-pyrazol-4-yl)acetamide]
- COX-2 positive expression score compared to the carrageenan group [1]: decreased
- percentage of paw swelling compared to the carrageenan group [2]: marked lower percentages of paw swelling
- PGE2 paw tissue level in comparison to the CLX group [3]: higher levels
- PGE2 paw tissue level compared to the 4b group ([3]; P < 0.05): lower
- PGE2 paw tissue level compared to the carrageenan group [3]: reduced
- semi-quantitative inflammation score (H&E) compared to the carrageenan group [4]: decreased
- IC50 [5]: 130 ± 2.3 nM
- HillSlope (best-fit value), COX-1 inhibition [5]: -0.4106
- LogIC50 (best-fit value), COX-1 inhibition [5]: 2.112 Log (nM)
- NF-κB positive expression score compared to the carrageenan group [6]: decreased
- NO paw tissue content compared to CLX [7]: lower
- NO paw tissue content compared to 4 b ([7]; P < 0.05): lower
- IC50 [8]: 69.8 ± 2.14 nM
- (SI) in vitro COX-2 selectivity index [8]: 1.86
- HillSlope (best-fit value), COX-2 inhibition [8]: -0.3652
- LogIC50 (best-fit value), COX-2 inhibition [8]: 1.844 Log (nM)
- melting point: 173 to 175 °C
- TNF-α lowering effect compared with CLX [9]: higher
- TNF-α paw tissue level compared to the carrageenan group [9]: decrease

SMILES: Cc1ccc(-c2cc(C(F)(F)F)nn2-c2ccc(S(N)(=O)=O)cc2)cc1 [Celecoxib, reference compound]
- percentage of paw swelling compared to the carrageenan group [2]: marked lower percentages of paw swelling
- PGE2 paw tissue level compared to the carrageenan group [3]: reduced
- semi-quantitative inflammation score (H&E) compared to the carrageenan group [4]: decreased
- NF-κB positive expression score compared to the carrageenan group [6]: decreased
- TNF-α paw tissue level compared to the carrageenan group [9]: decrease

SMILES: CC(=O)Nc1nnc(SCC(=O)Nc2c(C)n(C)n(-c3ccccc3)c2=O)s1 [Compound A]
- more active than diclofenac Na as antiinflammatory [10]: 46%

SMILES: Cc1cnc(NC(=O)C2=C(O)c3ccccc3S(=O)(=O)N2C)s1 [Meloxicam]
- % inhibition against COX-2 [11]: 44.95%
